# Data: publication PMC12569658, “An Orally Administered Misuse Deterrent Opioid Prodrug for Treatment of Acute Pain” (JACS Au, 2025)
# Legend:
# [1] = test system: C57BL/6J mice; conditions: IP injection of oxycodone; ref previous reports (reference numbers not printed); cited from earlier work
# From the text: To confirm that this analgesic effect was due to enzymatic degradation of the prodrug in the digestive system, the antinociceptive effects of prodrug 20 were examined following systemic intraperitoneal (IP) injection.
# [2] = test system: chymotrypsin and trypsin; test: Michaelis-Menten kinetics of pNP release in the presence of both chymotrypsin and trypsin; type: biochemical; conditions: for Km / VMax / kCat/KM (substrate specificity): chymotrypsin and trypsin 0.02 mM each, substrate 0.1-2.0 mM, 35 mM HEPES pH 7.5, 37 °C, absorbance 405 nm, average of n = 3
# From the text: In order to ensure the prodrug would be cleaved effectively once it was exposed to chymotrypsin and trypsin in concentrations found in the […], we elected to optimize the peptide sequence further, particularly on the ε-amine of the lysine, to enhance the substrate efficiency (Figure B). This would help to ensure that oxycodone is released in the gastrointestinal tract. […] Previous studies have shown that chymotrypsin binding can be enhanced through additional nonbulky amino acid groups following the aromatic residue. ,− Accordingly, substrates 9 and 10, with alanine residues coupled to phenylalanine, were prepared, and their kinetics were examined. […] Coupling a third alanine to the tyrosine residue (12) increased the substrate specificity by around 5-fold compared to 11. Since coupling of alanine residues to the α-amine of 6–8 increased the percentage of pNP release (Figure A), 13 with a single alanine on the N-terminus was prepared. Compared to substrate 11 with no N-terminal alanine, there was a minimal effect on the K M, but the V Max was reduced by half, leading to a lower k Cat/K M. Since 12 had the highest k Cat/K M and the fastest V Max, we proceeded to use this peptide scaffold for further experiments. […]
# (§1) General Procedure – Michaelis-Menten Kinetics […]
# (§2) substrate concentration of 2.0, 1.5, 1.0, 0.5, 0.24, and 0.1 mM, maintaining a constant concentration of DMSO across all conditions. These solutions were then combined with chymotrypsin and trypsin to afford a final concentration of 0.02 mM for each enzyme. Immediately upon addition of the proteases, the 96-well plate was inserted into the plate reader and the absorbance at 405 nm was monitored over the course of 4 ho urs with time points taken every 30 seconds. The plate was incubated in the plate reader at 37 °C. All conditions were carried out in triplicate and reported as the average between the three replicates. Michaelis -Menten enzyme kinetic analysis was carried out using GraphPad Prism 8.4.3. Substrate concentrations were adjusted as needed to obtain relevant Michaelis -Menten statistics. Concentrations of substrate are shown in their respective activity plots below.
# [3] = test system: chymotrypsin and trypsin; test: In vitro simulated digestion (pNP release) assay with trypsin, chymotrypsin or both enzymes; type: biochemical; conditions: substrate 1.5 mM, 35 mM HEPES pH 7.5, 37 °C, n = 3
# Method: We hypothesized that by protecting the phenol with a tert-butyl ether, chymotrypsin would not recognize the tyrosine derivative prior to passage through the acidic conditions in the stomach where the tert-butyl ether would be removed. This additional security measure removes the ability to pretreat the prodrug with store-bought digestive enzyme supplements to release the opioid.
# General Procedure – Release Kinetics
# (§3) The peptide was dissolved in DMSO and diluted using 35 mM HEPES buffer (pH 7.5) to a final substrate concentration of 1.5 mM, maintaining a constant concentration of DMSO across all conditions. These solutions were then combined with either chymotrypsin, trypsin, or both enzymes to afford a final concentration of 0.02 mM for each enzyme. Immediately upon addition of the proteases, the 96-well plate was inserted into the plate reader and the absorbance at 405 nm was monitored over the course of 4 hours with time points taken every 30 seconds. The plate was incubated in the plate reader at 37 °C.
# as §1, §2
# [4] = test system: C57BL/6J mice; test: Hot plate latency after intraperitoneal injection; type: in vivo, mouse; conditions: 30 mg/kg of oxycodone in prodrug, 55 °C hot plate, n = 6, ns vs water
# [5] = test system: chymotrypsin and trypsin; test: Michaelis-Menten competitive inhibition release assay of 12 with peptide byproduct 19; type: biochemical; conditions: 19 at 1.6, 0.8, 0.4 or 0.2 mM; 12 at 0.1-2.0 mM; chymotrypsin and trypsin 0.02 mM each; 35 mM HEPES pH 7.5; n = 3
# From the text: Prior to moving forward with analgesia studies in vivo, it was important to ensure that the AAAY (19) peptide byproduct from chymotrypsin cleavage was not competitively inhibiting the pNP release. This could be an issue in vivo, as the PEPT1 transepithelial transporter in the digestive tract has a very weak binding affinity for tetrapeptides. A lack of transport for 19 could lead to the accumulation and generation of a competitive inhibitor for chymotrypsin, thus reducing the overall amount of opioid released. To examine this hypothesis, Michaelis–Menten competitive inhibition enzyme kinetics were performed with chymotrypsin and trypsin for 12 in the presence of peptide 19. […] These observations enhanced our confidence in using the 12 prodrug scaffold for in vivo analgesia studies.
# Competitive Inhibition Release Assay
# 12 was dissolved in DMSO and diluted using 35 mM HEPES buffer (pH 7.5) to a final substrate concentration of 2.0, 1.5, 1.0, 0.5, 0.24, and 0.1 mM, maintaining a constant concentration of DMSO across all conditions. 19 was added to yield a final concentration of either 1.6, 0.8, 0.4, or 0.2 mM. […] Immediately upon addition of the proteases, the 96 - well plate was inserted into the plate reader and the absorbance at 405 nm was monitored over the course of 4 hours. […]
# [6] = target: T1, chymotrypsin (Bos taurus, UniProt P00766); test: pNP release assay in the presence of chymotrypsin only; type: biochemical; conditions: chymotrypsin only 0.02 mM, substrate 1.5 mM, 35 mM HEPES pH 7.5, 37 °C, absorbance 405 nm, over 4 h
# T1 construct: purchased
# From the text: Using the branched lysine peptide sequences modified from our previous work, we began to explore the sequence effects on the efficiency and release rate of a model reporter molecule, p-nitrophenol (pNP). Peptides 6–8 were initially prepared to determine whether the peptide backbone length had any effect on the release of pNP in the presence of chymotrypsin alone (Figure A; see Supporting Information (SI) for synthetic procedures). Chymotrypsin promiscuity (i.e., cleavage of both sites) could lead to less misuse deterrence as only one enzyme could promote the release of the opioid. […] However, substrate 8 reached greater than 90% pNP release within 3 h (Figures A and S15). […]
# as §3, with “These solutions were then combined with either chymotrypsin, trypsin, or both enzymes to afford a final concentration of 0.02 mM for each enzyme.” left out, “°C. […]” for “°C.”
# substrate concentration of 2.0, 1.5, 1.0, 0.5, 0.24, and 0.1 mM, maintaining a constant concentration of DMSO across all conditions. […] The plate was incubated in the plate reader at 37 °C. […]
Compound,Km [2] [µM],VMax [2] [µM/s],further results
COc1ccc2c3c1O[C@H]1C(=O)CC[C@@]4(O)[C@@H](C2)N(C)CC[C@]314 [oxycodone],,,analgesic effect after IP injection [1]: there is an analgesic effect
Ac-Ala-Lys[Tyr-Ala-Ala]-(2-(pNP-thionocarbamate)methyl)ethylamino trifluoroacetate [compound 13],4160,0.119,
Ac-Lys[Phe-Ala-Ala]-(2-(pNP-thionocarbamate)methyl)ethylamino trifluoroacetate [compound 10],1970,0.225,kCat/KM (substrate specificity) [2]: 5.73 × 10^–6 μM^-1s^-1
Ac-Lys[Phe-Ala]-(2-(pNP-thionocarbamate)methyl)ethylamino trifluoroacetate [compound 9],1420,0.021,
Ac-Lys[Tyr(tBu)-Ala-Ala-Ala]-(2-(pNP-thionocarbamate)methyl)ethylamino trifluoroacetate [compound 14],,,"pNP release over 150 min ([3]; both chymotrypsin and trypsin 0.02 mM each, absorbance 405 nm, 150 min, no acidic pretreatment): ~5%"
Ac-Lys[Tyr-Ala-Ala-Ala]-(2-(oxycodone-thionocarbamate)methyl)ethylamino ditrifluoroacetate [compound 20],,,withdrawal threshold (hot plate) latency after IP injection [4]: did not alleviate acute pain
Ac-Lys[Tyr-Ala-Ala-Ala]-(2-(pNP-thionocarbamate)methyl)ethylamino trifluoroacetate [compound 12],2350,0.749,"increase of substrate specificity (kCat/KM) compared to 11 ([2]; chymotrypsin and trypsin, relative to 11): around 5 fold; pNP release at which the simulated digestion assay stagnated ([3]; both chymotrypsin and trypsin 0.02 mM each, absorbance 405 nm, plateau): ~30%; enzyme requirement for pNP release ([3]; trypsin, chymotrypsin, or both enzymes, 0.02 mM each): only observed in the presence of both proteolytic enzymes"
Ac-Lys[Tyr-Ala-Ala]-(2-(pNP-thionocarbamate)methyl)ethylamino trifluoroacetate [compound 11],4000,0.276,
Ala-Ala-Ala-Tyr trifluoroacetate [compound 19],,,competitive inhibition of pNP release from 12 [5]: negligibly affected
Ala-Lys[(Ac)Phe]-(2-(pNP-thionocarbamate)methyl)ethylamino trifluoroacetate [compound 7],941,0.019,"pNP release over the course of 4 h, chymotrypsin alone [6]: less than 15%; kCat/KM (substrate specificity) [2]: 9.97 × 10^–7 μM^-1s^-1"
